Measurements as given in PMC8802628, “Selective activation of PFKL suppresses the phagocytic oxidative burst” (Cell, 2021).

Key:
GSDMD [1] = target: T1, GSDMD (Homo sapiens, UniProt P57764); experiment: Recombinant GSDMD cleavage by caspase-4; type: biochemical; settings: 10 μM
T1 sequence (P57764 1-484): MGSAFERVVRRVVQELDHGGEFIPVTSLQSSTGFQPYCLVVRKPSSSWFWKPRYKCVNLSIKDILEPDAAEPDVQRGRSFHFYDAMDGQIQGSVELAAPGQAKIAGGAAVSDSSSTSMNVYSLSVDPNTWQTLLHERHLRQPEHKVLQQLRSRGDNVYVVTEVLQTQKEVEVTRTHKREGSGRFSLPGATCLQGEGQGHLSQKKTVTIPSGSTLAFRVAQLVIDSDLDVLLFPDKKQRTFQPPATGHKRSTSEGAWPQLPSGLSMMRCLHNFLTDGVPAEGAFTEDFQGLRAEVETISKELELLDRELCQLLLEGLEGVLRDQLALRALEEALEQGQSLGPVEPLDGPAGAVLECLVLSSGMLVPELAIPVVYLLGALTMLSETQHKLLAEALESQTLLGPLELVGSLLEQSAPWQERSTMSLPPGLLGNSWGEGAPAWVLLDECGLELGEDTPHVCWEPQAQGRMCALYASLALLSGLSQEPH
Description: 1 μg recombinant GSDMD ([Aglietti et al., 2016]) was incubated with 10 μM LDC7559, 30 μM zVAD-fmk, or DMSO vehicle for 20 min, and then combined with 0.15 μg recombinant caspase-4 (750 mU; Abcam) in 20 μL of 50 mM HEPES, pH 7.2, 50 mM NaCl, 0.1% Chaps, 10 mM EDTA and 5% glycerol for 30 min at 37°C.

GSDMD [2] = target: T1, GSDMD; experiment: TR-FRET liposome cargo release (GSDMD pore formation); type: biochemical; settings: 10 μM
Description: GSDMD-dependent liposome cargo release was conducted by Confluence Discovery Technologies with modifications to the procedure described previously ([Aglietti et al., 2016]). Briefly, liposomes with an encapsulated cargo of europium-chelate conjugated biotin were formed from a lipid mixture of DOPC:DOPE (1:1). 0.15 mg/mL of cargo-loaded liposomes were mixed with 0.3 μM of recombinant GSDMD and incubated with 10 μM LDC7559, 10 μM disulfiram or DMSO vehicle. 0.15 μM caspase-4 and 50 nM streptavidin-Alexa Fluor 647 were added and TR-FRET was read over 1 h using a PHERAstar FSX Microplate Reader (BMG Labtech) equipped with a TR-FRET module.

PMNs = experiment: Phagocytosis of zymosan particles by PMNs; type: cell-based, human; settings: neutrophils, zymosan 2 h
Description: Figure S7. NA-11 activates PFKL to prevent the oxidative burst and impair neutrophil defenses, related to Figures 4 and 6
(A) PFK1 activity in PMN lysates. Cells were pretreated with 0.5 mM NA-11, 5 mM LDC7559, 100 mM apocynin, 200 mM thionicotinamid e (TN), 1 mM MEK inhibitor U0126, or DMSO vehicle for 30 min, or 1 mM proteasome inhibitor bortezomib for 1 h, and then activated with 50 nM PMA for 30 min where indicated. Bars represent the mean ± s.d. of cells from 3 donors. (B) NADH:NAD+ ratio in PMA-activated PMNs. Cells were pretreated with 0.5 mM NA-11 or DMSO vehicle for 30 min, and then activated with 50 nM PMA for 30 min. Data are the mean ± s.d. of cells from 3 donors. (C) Immunolabeling of citrullinated histone H3 (magenta) and myeloperoxidase (red) in PMNs pretreated with 0.5 mM NA-11 or DMSO vehicle for 30 min and then stimulated for 4 h with 50 nM PMA, 10 mg/mL extracellular LPS, 0.5 mg/mL cholesterol crystals, or 25 mM nigericin. Chromatin is stained green. Scale bar, […]. Results are representative of 3 independent experiments.
(D) Fluorescence micrographs of PMNs pretreated with 0.5 mM NA-11, 200 mM thionicotinamide (TN), 0.5 mM NA-4, or DMSO vehicle for 30 min, and then incubated with serum-opsonized Texas Red-conjugated zymosan particles (10 mg/mL) for 2 h. […]

COc1ccccc1-c1cc2n(n1)Cc1ccc(NC(C)=O)cc1OC2 [LDC7559, reference compound]
cleavage of recombinant GSDMD by caspase-4 (GSDMD [1]): did not inhibit cleavage of recombinant GSDMD by caspase-4 | liposome permeabilization by GSDMD pore-forming fragment (GSDMD [2]): nor did it prevent the GSDMD pore-forming fragment from permeabilizing liposomes

CC(=O)Nc1ccc2c(c1)OCc1cc(-c3ccccc3C#CCCCO)nn1C2 [NA-11]
phagocytosis (intracellular zymosan particles) (PMNs): neither NA-11 nor TN affected phagocytosis
